The text below walks through data of patent publication US12180159B2, “Activators of the unfolded protein response” (The Board of Trustees of the University of Illinois, priority 2018, dated 2024).

For series [1], the system named is D538G mutant tumors (TDG cell line). Kind of series: TDG-luc orthotopic tumor model. Type of series: in vivo, mouse. From the text:
FIG. 41. SERK-F6 eradicates mutant ERα primary and metastatic breast cancer. a-c, TYS-luc. orthotopic tumors were established in NSG ovariectomized mice (no E2 pellet, 60 days to establish) and dosed daily as indicated (n=5-6). b, representative examples of bioluminescence images of SERK-F6 treated mice (7 days). d,e, TDG-luc. orthotopic tumors were established in NSG ovariectomized mice (no E2 pellet, 120 days to establish) and dosed daily as indicated (n=4-5). e, Bioluminescence image of SERK-F6 treated mouse with TDG-luc. tumor burden after 7 days. f, MYS-luc. orthotopic tumors were established in NSG ovariectomized mice (no E2 pellet, 45 days to establish) and dosed daily as indicated (n=4-5). g, MDG-luc. orthotopic tumors were established in NSG ovariectomized mice (no E2 pellet, 45 days to establish) and dosed daily as indicated (n=4-5). h, Metastatic model with MDG-luc. cells injected into the tail-vein of NSG ovariectomized mice (no E2 pellet, 1.5 months to establish) and mice were dosed daily as indicated (n=4-5).
FIG. 4A illustrates how IC50's for cell death were determined. 4B tests the ability BHPI, (−)-105, and 01-15 to kill. […] Large orthotopic breast tumors of TYD-Luc cells (T47DERαD538G-luciferase human breast cancer cells) were allowed to form for 4 months in immune suppressed NSG mice. […]

Series [2] relates to MCF-7 ERα Y537S-luciferase cells. The experiment in a line: Long-term cell culture experiment, MCF-7Y537S cells. Type of series: cell-based, human. The following applies: conditions as FIG. 15.
The subject of series [3] is protein synthesis in Caov-3 cells. Kind of series: Inhibition of protein synthesis (35S-methionine incorporation). The settings on record: 1,000 nM. Type of series: cell-based, human. How it is done: ERα positive Caov-3, human ovarian cancer cells, were treated for the indicated times with 1,000 nM BHPI or 1,000 nM (−)-105. Cells were briefly labeled with ^35S-methionine. Incorporation of labeled ^35S-methionine into protein was determined by trichloroacetic acid precipitation and trapping of precipitated protein, but not free amino acids, in small Whatman hardened ashless filters. After solubilizing the protein in the filters with base and neutralization with acid, the samples were counted in a liquid scintillation counter. Shown is the average (n≥3) percent inhibition of protein synthesis compared to the 0-time sample. The near quantitative inhibition of protein synthesis by (−)-105 is consistent with (−)-105 inducing lethal hyperactivation of the PERK arm of the UPR. Even non-growing cells are constantly degrading protein and making new proteins. Cells in which nearly all (>90%) of protein synthesis is inhibited cannot grow and will ultimately die.

Series [4] relates to ATP levels in TYS-Luc cells. The experiment in a line: Intracellular ATP levels. Type of series: cell-based, human. The settings on record: 1,000 nM. How it is done: TYS-Luc cells were maintained DMSO vehicle (Veh), 1,000 nM BHPI, 1,000 nM (−)-105 with and without 10,000 nM thapsigargin (THG) for the indicated times. ATP levels were determines using a kit and relative ATP levels were from a standard curve. […] (n=3±SEM).

In the next series the test system is MCF-7 cells. Type of series: cell-based. How it is done:
FIG. 36. Discovery of SERK-F6 (also known as, C(−)-105, (−)-105, (R)-105, (−)-1, or (R)-1), a compound that kills ERα-positive cancer cells. a, Chemical structures of BHPI and racemic compound 1 (i.e. (±)-1), and their cytotoxic activity on T47D breast cancer cells after 24-hour incubations with concentrations as indicated in nM. Cells were stained with annexin V-FITC and PI dyes prior to analysis via flow cytometry. […] Cells were incubated with SERK-F6 or positive control, Raptinal, for 24 hours and then stained with annexin V-FITC and PI dyes and analyzed via flow cytometry. Error bars represent S.E.M of 3 independent replicates. c, IC50 values of SERK-F6 after 24-hour incubation against a panel of cancer cell lines grouped by their reported ERα status. Cell viability was measured by Alamar blue fluorescence and set relative to a vehicle control and a quantitative dead control treated with Raptinal. Error bars represent S.E.M of 3 independent experiments. d, Crystal violet staining of T47D cells after 24-hour incubations with compounds and concentrations as indicated. […] Cell number was determined by MTS.
Through a medicinal chemistry campaign, (±)-1 was discovered to show an unexpected cytotoxic phenotype (FIG. 36A). […] The dose dependent activity of SERK-F6 was determined against a panel of cancer cell lines (FIG. 36C and FIG. 37A) for ERα.

On to `O=C1Nc2c(C(F)(F)F)cccc2C1(c1ccc(O)cc1)c1ccc(OC(F)(F)F)cc1` (single isomer, unassigned; (-)) [(−)-105, 3-(4-hydroxyphenyl)-3-(4-(trifluoromethoxy)phenyl)-7-(trifluoromethyl)indolin-2-one], for which the “efficacy when administered orally” value in series [1] (40 mg/kg oral gavage, 3 days) was “effective when administered orally”. Also, the “effect on D538G mutant tumors” value in series [1] (mouse, in vivo) is given as “destruction of D538G mutant tumors”. The “effect on MCF-7Y537S cells in long-term experiments” value in series [2] is reported as “eradicates”. Further, in series [3], the “inhibition of the synthesis of new proteins” value is listed as “near-quantitative, inhibition”. For the same molecule, in series [4], the “intracellular ATP levels” value was “reduces intracellular ATP levels”. For the same molecule, the “cytotoxicity to ERα positive MCF-7 cells” value in the series with MCF-7 cells is recorded as “cytotoxic”. In addition, the “death of MCF-7 cells” value with MCF-7 cells (FIG. 10) is on record as “induces dose-dependent death”.
